Source: US9073821B2, “Hydroxamic acid derivative” (priority 2010, dated 2015)

Molecular target: Pseudomonas aeruginosa LpxC enzyme (Pseudomonas aeruginosa (strain ATCC 15692 / DSM 22644 / CIP 104116 / JCM 14847 / LMG 12228 / 1C / PRS 101 / PAO1), UniProt P47205)
Test: biochemical
Type: biochemical
Conditions: inhibitory activity on Pseudomonas aeruginosa LpxC enzyme, class symbols A/B/C; read-out: Enzyme inhibitory activity

Question: With CNC(=O)C(C(=O)NO)N(C)C(=O)c1ccc(-c2ccc(OCCCCOC)cc2)cc1 (stereo not drawn) [Compound 215, N-hydroxy-2-[{[4′-(4-methoxybutoxy)biphenyl-4-yl]carbonyl}(methyl)amino]-N′-methylpropanediamide] as the compound, how does the IC50 read?
Answer: Its IC50 is less than 10 nM.

Question: With CNC(=O)C(C(=O)NO)N(C)C(=O)c1ccc(-c2ccc(OC)c(F)c2)cc1 (stereo not drawn) [Compound 216, 2-{[(3′-fluoro-4′-methoxybiphenyl-4-yl)carbonyl](methyl)amino}-N-hydroxy-N′-methylpropanediamide] as the compound, how does the IC50 read?
Answer: Its IC50 is less than 10 nM.

Question: For CNC(=O)C(C(=O)NO)N(C)C(=O)c1ccc(-c2ccc(OCCCNC3CC3)cc2)cc1 (stereo not drawn) [Compound 217, 2-[({4′-[3-(cyclopropylamino)propoxy]biphenyl-4-yl}carbonyl)(methyl)amino]-N-hydroxy-N′-methylpropanediamide], which IC50 is on record?
Answer: Its IC50 is 10 to 100 nM.

Question: Which IC50 does the source give for CNC(=O)C(C(=O)NO)N(C)C(=O)c1ccc(C#Cc2ccc(OC)nc2)cc1 (stereo not drawn) [Compound 219, N-hydroxy-2-[{4-[(6-methoxypyridin-3-yl)ethynyl]benzoyl}(methyl)amino]-N′-methylpropanediamide] here?
Answer: Its IC50 is less than 10 nM.

Question: Which IC50 does the source give for CNC(=O)C(C(=O)NO)N(C)C(=O)c1ccc(-c2cc(F)c(F)c(F)c2)cc1 (stereo not drawn) [Compound 220, N-hydroxy-N′-methyl-2-{methyl[(3′,4′,5′-trifluorobiphenyl-4-yl)carbonyl]amino}propanediamide] here?
Answer: The IC50 was 10 to 100 nM.

Question: With CNC(=O)C(C(=O)NO)N(C)C(=O)c1ccc(-c2ccc(CCCCN3CCOCC3)cc2)cc1 (stereo not drawn) [Compound 221, N-hydroxy-N′-methyl-2-[methyl({4′-[4-(morpholin-4-yl)butyl]biphenyl-4-yl}carbonyl)amino]propanediamide] as the compound, how does the IC50 read?
Answer: Its IC50 is less than 10 nM.

Question: For CNC(=O)C(C(=O)NO)N(C)C(=O)c1ccc(-c2cc(Cl)cc(Cl)c2)cc1 (stereo not drawn) [Compound 222, 2-{[(3′,5′-dichlorobiphenyl-4-yl)carbonyl](methyl)amino}-N-hydroxy-N′-methylpropanediamide], which IC50 is on record?
Answer: Its IC50 is 10 to 100 nM.

Question: With CNC(=O)C(C(=O)NO)N(C)C(=O)c1ccc(-c2ccc(F)c(Cl)c2)cc1 (stereo not drawn) [Compound 223, 2-{[(3′-chloro-4′-fluorobiphenyl-4-yl)carbonyl](methyl)amino}-N-hydroxy-N′-methylpropanediamide] as the compound, how does the IC50 read?
Answer: Its IC50 is less than 10 nM.

Question: CNC(=O)C(C(=O)NO)N(C)C(=O)c1ccc(-c2ccc(Cl)c(Cl)c2)cc1 (stereo not drawn) [Compound 224, 2-{[(3′,4′-dichlorobiphenyl-4-yl)carbonyl](methyl)amino}-N-hydroxy-N′-methylpropanediamide] was tested. Which IC50 did it give?
Answer: The IC50 was less than 10 nM.

Question: With CNC(=O)C(C(=O)NO)N(CC(F)F)C(=O)c1ccc(-c2ccc(OCCCN3CCOCC3)cc2)cc1 (stereo not drawn) [Compound 225, 2-[(2,2-difluoroethyl)({4′-[3-(morpholin-4-yl)propoxy]biphenyl-4-yl}carbonyl)amino]-N-hydroxy-N′-methylpropanediamide] as the compound, how does the IC50 read?
Answer: The IC50 was less than 10 nM.

Question: With CNC(=O)C(C(=O)NO)N(C)C(=O)c1ccc(-c2ccc(NC)cc2F)cc1 (stereo not drawn) [Compound 226, 2-[{[2′-fluoro-4′-(methylamino)biphenyl-4-yl]carbonyl}(methyl)amino]-N-hydroxy-N′-methylpropanediamide] as the compound, how does the IC50 read?
Answer: The IC50 was less than 10 nM.

Question: With CNC(=O)C(C(=O)NO)N(C)C(=O)c1ccc(-c2ccc(NC)c(Cl)c2)cc1 (stereo not drawn) [Compound 227, 2-[{[3′-chloro-4′-(methylamino)biphenyl-4-yl]carbonyl}(methyl)amino]-N-hydroxy-N′-methylpropanediamide] as the compound, how does the IC50 read?
Answer: Its IC50 is less than 10 nM.

Question: CNC(=O)C(C(=O)NO)N(C)C(=O)c1ccc(-c2ccc(NCCCOC)cc2)cc1 (stereo not drawn) [Compound 228, N-hydroxy-2-[({4′-[(3-methoxypropyl)amino]biphenyl-4-yl}carbonyl)(methyl)amino]-N′-methylpropanediamide] was tested. Which IC50 did it give?
Answer: Its IC50 is less than 10 nM.

Question: CNC(=O)C(C(=O)NO)N(C)C(=O)c1ccc(-c2ccc(N3CC(OC)C3)cc2)cc1 (stereo not drawn) [Compound 229, N-hydroxy-2-[{[4′-(3-methoxyazetidin-1-yl)biphenyl-4-yl]carbonyl}(methyl)amino]-N′-methylpropanediamide] was tested. Which IC50 did it give?
Answer: The IC50 was less than 10 nM.

Question: CCNc1ccc(-c2ccc(C(=O)N(C)C(C(=O)NC)C(=O)NO)cc2)cc1F (stereo not drawn) [Compound 230, 2-[{[4′-(ethylamino)-3′-fluorobiphenyl-4-yl]carbonyl}(methyl)amino]-N-hydroxy-N′-methylpropanediamide] was tested. Which IC50 did it give?
Answer: The IC50 was less than 10 nM.

Question: How did the IC50 turn out when CCCNc1ccc(-c2ccc(C(=O)N(C)C(C(=O)NC)C(=O)NO)cc2)cc1F (stereo not drawn) [Compound 231, 2-[{[3′-fluoro-4′-(propylamino)biphenyl-4-yl]carbonyl}(methyl)amino]-N-hydroxy-N′-methylpropanediamide] was run?
Answer: The IC50 was less than 10 nM.

Question: For CNC(=O)C(C(=O)NO)N(C)C(=O)c1ccc(-c2ccc(CN3CCOCC3)cc2)cc1 (stereo not drawn) [Compound 232, N-hydroxy-N′-methyl-2-(methyl {[4′-(morpholin-4-ylmethyl)biphenyl-4-yl]carbonyl}amino)propanediamide], which IC50 is on record?
Answer: The IC50 was 10 to 100 nM.

Question: With CNC(=O)C(C(=O)NO)N(C)C(=O)c1ccc(-c2c(F)cccc2F)cc1 (stereo not drawn) [Compound 233, 2-{[(2′,6′-difluorobiphenyl-4-yl)carbonyl](methyl)amino}-N-hydroxy-N′-methylpropanediamide] as the compound, how does the IC50 read?
Answer: The IC50 was 10 to 100 nM.

Question: How did the IC50 turn out when CNC(=O)C(C(=O)NO)N(C)C(=O)c1ccc(C#Cc2ccc(CN3CCCCC3)cc2)cc1 (stereo not drawn) [Compound 234, N-hydroxy-N′-methyl-2-[methyl(4-{[4-(piperidin-1-ylmethyl)phenyl]ethynyl}benzoyl)amino]propanediamide] was run?
Answer: Its IC50 is less than 10 nM.

Question: How did the IC50 turn out when CCN(C(=O)c1ccc(-c2ccc(NC)cc2)cc1)C(C(=O)NC)C(=O)NO (stereo not drawn) [Compound 235, 2-(ethyl {[4′-(methylamino)biphenyl-4-yl]carbonyl}amino)-N-hydroxy-N′-methylpropanediamide] was run?
Answer: The IC50 was less than 10 nM.

Question: CNC(=O)C(C(=O)NO)N(C)C(=O)c1ccc(-c2ccc(CCN3CCOCC3)cc2)cc1 (stereo not drawn) [Compound 236, N-hydroxy-N′-methyl-2-[methyl({4′-[2-(morpholin-4-yl)ethyl]biphenyl-4-yl}carbonyl)amino]propanediamide] was tested. Which IC50 did it give?
Answer: The IC50 was less than 10 nM.

Question: For CNC(=O)C(C(=O)NO)N(C)C(=O)c1ccc(-c2ccc(CCF)cc2)cc1 (stereo not drawn) [Compound 238, 2-[{[4′-(2-fluoroethyl)biphenyl-4-yl]carbonyl}(methyl)amino]-N-hydroxy-N′-methylpropanediamide], which IC50 is on record?
Answer: Its IC50 is less than 10 nM.

Question: How did the IC50 turn out when CNC(=O)C(C(=O)NO)N(C)C(=O)c1ccc(-c2ccc(CN(C)C(C)=O)cc2)cc1 (stereo not drawn) [Compound 239, 2-{[(4′-{[acetyl(methyl)amino]methyl}biphenyl-4-yl)carbonyl](methyl)amino}-N-hydroxy-N′-methylpropanediamide] was run?
Answer: The IC50 was 10 to 100 nM.

Question: Which IC50 does the source give for CNC(=O)C(C(=O)NO)N(C)C(=O)c1ccc(-c2ccc(C(C)(C)C)cc2)cc1 (stereo not drawn) [Compound 240, 2-{[(4′-tert-butylbiphenyl-4-yl)carbonyl](methyl)amino}-N-hydroxy-N′-methylpropanediamide] here?
Answer: Its IC50 is 10 to 100 nM.

Question: Which IC50 does the source give for CNC(=O)C(C(=O)NO)N(C)C(=O)c1ccc(-c2ccc(CNC(C)=O)cc2)cc1 (stereo not drawn) [Compound 241, 2-[({4′-[(acetylamino)methyl]biphenyl-4-yl}carbonyl)(methyl)amino]-N-hydroxy-N′-methylpropanediamide] here?
Answer: The IC50 was 10 to 100 nM.

Question: For CCNC(=O)C(C(=O)NO)N(C)C(=O)c1ccc(-c2ccccc2)cc1 (stereo not drawn) [Compound 242, 2-[(biphenyl-4-ylcarbonyl)(methyl)amino]-N-ethyl-N′-hydroxypropanediamide], which IC50 is on record?
Answer: The IC50 was 10 to 100 nM.

Question: CNC(=O)C(C(=O)NO)N(C)C(=O)c1ccc(-c2ccc(OCCN3CCOCC3)cc2)cc1 (stereo not drawn) [Compound 243, N-hydroxy-N′-methyl-2-[methyl({4′-[2-(morpholin-4-yl)ethoxy]biphenyl-4-yl}carbonyl)amino]propanediamide] was tested. Which IC50 did it give?
Answer: The IC50 was 10 to 100 nM.

Question: For CNC(=O)C(C(=O)NO)N(C)C(=O)c1ccc(-c2ccc(N3CC(O)C3)cc2)cc1 (stereo not drawn) [Compound 244, N-hydroxy-2-[{[4′-(3-hydroxyazetidin-1-yl)biphenyl-4-yl]carbonyl}(methyl)amino]-N′-methylpropanediamide], which IC50 is on record?
Answer: The IC50 was 10 to 100 nM.

Question: How did the IC50 turn out when CCCNc1ccc(-c2ccc(C(=O)N(C)C(C(=O)NC)C(=O)NO)cc2)cc1 (stereo not drawn) [Compound 245, N-hydroxy-N′-methyl-2-(methyl {[4′-(propylamino)biphenyl-4-yl]carbonyl}amino)propanediamide] was run?
Answer: Its IC50 is less than 10 nM.

Question: CNC(=O)C(C(=O)NO)N(C)C(=O)c1ccc(-c2ccc(CCOC)cc2)cc1 (stereo not drawn) [Compound 246, N-hydroxy-2-[{[4′-(2-methoxyethyl)biphenyl-4-yl]carbonyl}(methyl)amino]-N′-methylpropanediamide] was tested. Which IC50 did it give?
Answer: The IC50 was less than 10 nM.

Question: With CNC(=O)C(C(=O)NO)N(C)C(=O)c1ccc(-c2ccc(N3CCOC3=O)cc2)cc1 (stereo not drawn) [Compound 247, N-hydroxy-N′-methyl-2-(methyl {[4′-(2-oxo-1,3-oxazolidin-3-yl)biphenyl-4-yl]carbonyl}amino)propanediamide] as the compound, how does the IC50 read?
Answer: Its IC50 is 10 to 100 nM.

Question: For CNC(=O)C(C(=O)NO)N(C)C(=O)c1ccc(-c2ccc(C(=O)NC(C)(C)C)cc2)cc1 (stereo not drawn) [Compound 248, N′-tert-butyl-N-[1-(hydroxyamino)-3-(methylamino)-1,3-dioxopropan-2-yl]-N-methylbiphenyl-4,4′-dicarboxamide], which IC50 is on record?
Answer: The IC50 was 10 to 100 nM.

Question: Which IC50 does the source give for CNC(=O)C(C(=O)NO)N(C)C(=O)c1ccc(N2CC(c3ccccc3)C2)cc1 (stereo not drawn) [Compound 249, N-hydroxy-N′-methyl-2-{methyl[4-(3-phenylazetidin-1-yl)benzoyl]amino}propanediamide] here?
Answer: The IC50 was 10 to 100 nM.

Question: CNC(=O)C(C(=O)NO)N(C)C(=O)c1ccc(N2Cc3ccccc3C2)cc1 (stereo not drawn) [Compound 250, 2-{[4-(1,3-dihydro-2H-isoindol-2-yl)benzoyl](methyl)amino}-N-hydroxy-N′-methylpropanediamide] was tested. Which IC50 did it give?
Answer: The IC50 was 10 to 100 nM.

Question: How did the IC50 turn out when CCC(F)(F)c1ccc(-c2ccc(C(=O)N(C)C(C(=O)NC)C(=O)NO)cc2)cc1 (stereo not drawn) [Compound 251, 2-[{[4′-(1,1-difluoropropyl)biphenyl-4-yl]carbonyl}(methyl)amino]-N-hydroxy-N′-methylpropanediamide] was run?
Answer: Its IC50 is less than 10 nM.

Question: CNC(=O)C(C(=O)NO)N(C)C(=O)c1ccc(-c2ccc(C(=O)N(C)C)cc2)cc1 (stereo not drawn) [Compound 252, N-[1-(hydroxyamino)-3-(methylamino)-1,3-dioxopropan-2-yl]-N,N′,N′-trimethylbiphenyl-4,4′-dicarboxamide] was tested. Which IC50 did it give?
Answer: The IC50 was 10 to 100 nM.
